Measured values reported in patent US12102637B2, “Pharmaceutical formulations for treating endometriosis, uterine fibroids, polycystic ovary syndrome or adenomyosis” (AbbVie Inc., priority 2017, dated 2024).
Marks after values point to notes of the source that are not given here.

Assays:
menstrual bleeding = experiment: Effects on menstrual bleeding patterns (electronic daily diary; bleeding/spotting days, intensity, amenorrhea, resumption of menses); type: in vivo, human; details: for Mean bleeding/spotting days in prior 28 days / Mean Intensity score: Baseline; for Mean Intensity score: scale 1 to 4 (1 = spotting, 4 = heavy), subjects with at least 1 day of bleeding or spotting in 28 day interval
endometrium = experiment: Endometrial biopsies in Study EM-I and its extension; type: in vivo, human; details: Month 6 and Month 12
Description: Endometrial biopsies were performed in subjects in Study EM-I and its extension at Month 6 and Month 12.

monkeys = experiment: Repeat-dose study in monkeys (reproductive organs); type: in vivo, monkey; details: monkeys, 75, 150, 300 and 600 mg/kg/day, all doses
Source text: Based on pharmacologic actions of elagolix in humans a reversible effect on fertility may be expected in women.

[1] = Pharmacokinetic properties of elagolix in healthy subjects; details: human, in vivo
[2] = system: women with moderate to severe endometriosis-related pain; experiment: PROMIS Fatigue SF-6a T-score in Phase III endometriosis study; type: in vivo, human
Description: A Phase III study was conducted to assess the effects of elagolix for clinically meaningful reductions in pain and other symptoms. Data provided examined the impact of elagolix on fatigue in women with moderate to severe endometriosis-related pain. […] Fatigue was assessed using the Patient Reported Outcome Measurement Information System (PROMIS®), Fatigue Short Form (SF) 6a. Six items assessed a range of self-reported symptoms from mild, subjective feelings of tiredness to overwhelming, sustained sense of exhaustion that likely decreases one's ability to execute daily activities and function normally. The domain was divided into the experience of fatigue (frequency, duration and intensity) and impact of fatigue on physical, mental and social activities. All items assessed fatigue over the previous seven days. Responses to each question was filed on a 5-item Likert scale: 1—“Not at all”; 2—“A little bit”; 3—“Somewhat”; 4—“Quite a bit”; and 5—“Very much.” The questionnaire was administered at baseline and months 1, 3, and 6. Lower scores indicated less fatigue. Post-hoc, Fatigue SF-6a raw scores were converted to T-scores. The T-score rescales […] the raw score into a standardized score such that the general population has a mean of 50 and a standard deviation (SD) of 10. Analysis: […] ANCOVA controlled for treatment as main effect. Baseline Fatigue SF-6a T-score included as a covariate.

rats = experiment: 2-year carcinogenicity study in rats; type: in vivo; details: rat
Source text: The rat tumors were identified as being species-specific and of negligible relevance to humans. This conclusion is based on a follow-on thyroid and hepatic effects-related investigative study performed to document the possibility that thyroid and liver tumors may be specific to rat and occurred via induction of hepatic drug metabolizing enzymes at the high dose.

[3] = Drug interaction studies: elagolix in the presence of co-administered drug; type: in vivo, human; details: for AUC Ratio (co-administration vs elagolix alone) / Cmax Ratio (co-administration vs elagolix alone): elagolix 150 mg single dose
Description: Drug interaction studies were performed with elagolix and other drugs that are likely to be co-administered and with drugs commonly used as probes for pharmacokinetic interactions.

[4] = system: women treated in Studies EM-1 and EM-2; experiment: Suicidal ideation, suicidal behavior and mood disorders in Studies EM-1 and EM-2; type: in vivo, human
Source text: Patients with depressive symptoms should be evaluated to determine whether the risks of continued therapy outweigh the benefits. Patients with new or worsening depression, anxiety or other mood changes should be referred to a mental health professional, as appropriate. Patients with suicidal ideation and behavior should seek immediate medical attention. Benefits and risks of continuing elagolix should be revaluated if such events occur and optionally, elagolix should be stopped with worsening or serious depression, anxiety, mood changes or suicidal ideation.
In the placebo-controlled trials (Studies EM-1 and EM-2), elagolix was associated with adverse mood changes, particularly in those with a history of depression.

[5] = system: premenopausal women with endometriosis with associated pain; experiment: Study EM-I: responders on Daily Endometriosis Pain Impact Scale; type: in vivo, human; details: 150 mg QD
Source text: Each placebo-controlled study assessed the reduction in endometriosis-associated pain over 6 months of treatment. More than 75 percent of women who completed Study EM-I and EM-II enrolled in the extension studies for an additional 6 months treatment period. Subjects were followed for up to 12 months post-treatment. See FIGS. 11-14 The co-primary efficacy endpoints were the proportion of responders for dysmenorrhea and pelvic pain not related to menses (also known as non-menstrual pelvic pain [NMPP]) at Month 3 compared to placebo. The primary analysis independently evaluated these endpoints using a daily diary that asked patients to assess their pain and its impact on their daily activities, over the previous 24 hours. […] Women were defined as responders if they experienced clinically meaningful reduction in dysmenorrhea and/or NMPP with no increased analgesic use for endometriosis associated pain. Dyspareunia was evaluated as a secondary endpoint using the Daily Endometriosis Pain Impact Scale.

[6] = system: cytochrome P450 (CYP) 3A enzyme; experiment: Elagolix as inducer and substrate of CYP3A
Source text: Co-administration with elagolix may decrease plasma concentration of drugs that are substrates of CYP3A.
Elagolix is a substrate of CYP3A, P-gp, and organic anion transporting polypeptide (OATP)1B1. Clinically meaningful interactions are not expected when elagolix is co-administered with drugs that inhibit CYP3A or P-gp.

pKa of elagolix = type: physicochemical
mice = experiment: 2-year carcinogenicity study in mice; type: in vivo; details: mouse, any dose
[7] = Pharmacokinetics in renal impairment; type: in vivo, human; details: moderate to severe or end stage renal disease vs normal renal function
Source text: The mean exposures are similar for women with moderate to severe or end stage renal disease (including women on dialysis) compared to women with normal renal function.

[8] = BCS classification of Compound A; type: physicochemical
Source text: Release Profile Drugs administered via oral solid dosage forms should dissolve in vivo before systemic absorption can take place. There are number of factors which affect drug dissolution, including physicochemical properties of the drug substance. […] Incomplete dissolution may result in highly variable inter- and intra patient bioavailability. It has been determined in the present application that Compound A is a BCS class III drug. It also has been determined in the present application that the monosodium salt of Compound A has a tendency to form a gel, particularly when present at an amount greater than about 10% by weight in the absence of an appropriate anti-gelling agent, when administered orally in a solid dosage form. Thus, it is desirable to provide oral solid dosage forms that facilitate drug dissolution.

[9] = Ketoconazole 400 mg once daily, N 11
[10] = Rifampin 600 mg single dose, N 12

## COc1cccc(-c2c(C)n(Cc3c(F)cccc3C(F)(F)F)c(=O)n(C[C@H](NCCCC(=O)O)c3ccccc3)c2=O)c1F [Compound A, 4-((R)-2-[5-(2-fluoro-3-methoxy-phenyl)-3-(2-fluoro-6-trifluoromethyl-benzyl)-4-methyl-2,6-dioxo-3,6-dihydro-2H-pyrimidin-1-yl]-1-phenyl-ethylamino)-butyric acid]
Menstrual bleeding; Elagolix 150 mg Once Daily
  Mean bleeding/spotting days in prior 28 days: 5.3 days
  Mean Intensity score: 2.6
Menstrual bleeding; Elagolix 200 mg Twice Daily
  Mean bleeding/spotting days in prior 28 days: 5.7 days
  Mean Intensity score: 2.5
Menstrual bleeding; first six months of treatment, 150 mg once daily
  incidence of amenorrhea: 6-17%
Menstrual bleeding; first six months of treatment, 200 mg twice daily
  incidence of amenorrhea: 13-52%
Menstrual bleeding; second 6 months of treatment, 150 mg once daily
  incidence of amenorrhea: 11-15%
Menstrual bleeding; second 6 months of treatment, 200 mg twice daily
  incidence of amenorrhea: 46-57%
Menstrual bleeding; up to 12 months, subjects who reported menstrual bleeding
  bleeding and spotting days and bleeding intensity: dose-dependent reduction in mean number of bleeding and spotting days and bleeding intensity
endometrium
  endometrial biopsy findings: no abnormal biopsy findings post-baseline
monkeys
  reproductive organ findings in repeat-dose study: reversible atrophy of reproductive organs (cervix, uterus and vagina)
[1]
  Major route of elimination: Hepatic metabolism
[2]; 200 mg, Month 1, vs placebo
  PROMIS Fatigue SF-6a T-Score: statistically significant reduction in fatigue
[2]; both doses (150 mg QD, 200 mg BID), Months 3 and 6, vs placebo
  PROMIS Fatigue SF-6a T-Score: Statistically significant reductions relative to placebo
rats; both, in vivo, 2 years
  margin of safety with respect to 200 mg BID in women: 13 fold
rats; high dose
  tumors, 2-year carcinogenicity study: increase in thyroid (male and female) and liver (males only) tumors
[3]; [9]
  AUC Ratio (co-administration vs elagolix alone): 2.20
  Cmax Ratio (co-administration vs elagolix alone): 1.77
[3]; Rifampin 600 mg once daily
  AUC Ratio (co-administration vs elagolix alone): 1.65
  Cmax Ratio (co-administration vs elagolix alone): 2.00
[3]; [10]
  AUC Ratio (co-administration vs elagolix alone): 5.58
  Cmax Ratio (co-administration vs elagolix alone): 4.37
[3]; concomitant rifampin
  direction of the change in AUC of elagolix: ↑ elaolix
[4]; 150 mg Once Daily (N = 475)
  Completed Suicide, %: 0.2%
  Depressed Mood, depression, depressive symptoms and or tearfulness, %: 2.7%
  Mood altered, mood swings, %: 5.7%
  Suicidal ideation, %: 0.2%
[4]; 200 mg Twice Daily (N = 477)
  Depressed Mood, depression, depressive symptoms and or tearfulness, %: 6.1%
  Mood altered, mood swings, %: 5.2%
  Suicidal ideation, %: 0.2%
[4]; vs placebo
  incidence of depression and mood changes: higher incidence of depression and mood changes compared to placebo
[5]
  Proportion of Responders, Dysmenorrhea (Month 3): 45.4*** %
[6]
  induction of cytochrome P450 (CYP) 3A enzyme: weak to moderate inducer
  substrate of CYP3A: substrate
pKa of elagolix
  pKa: ~7.89
mice
  tumors, 2-year carcinogenicity study: no increase in tumors
[7]
  exposures (Cmax and AUC) in renal impairment: not altered by renal impairment
[8]
  BCS class: BCS class III
